In PubChem BioAssay AID743030 (The Scripps Research Institute Molecular Screening Center, 2013):

Assays:
Assay in all cases: fraction bound to plasma proteins and brain, late-stage follow-up, ADME assay for V1a-R antagonist project, biochemical, LC-MS, human, mouse, rat plasma, rat brain (AID 743030)
Conditions in all cases: equilibrium dialysis, plasma/brain binding, 16 h, at 2.5 µM; call rule not given here
Rat plasma proteins = test system: Rat plasma proteins
Human plasma proteins = test system: Human plasma proteins
Rat brain tissue = test system: Rat brain tissue
Mouse plasma proteins = test system: Mouse plasma proteins

Measured: fraction bound

O=C(C1CCN(c2ccc(Cl)cn2)CC1)N(CC1CC1)c1ccc(Cl)cc1
active: Rat plasma proteins 99.5% | Human plasma proteins 99.4% | Rat brain tissue > 99.5% | Mouse plasma proteins 97.7%
